Assays:
[1] = Glycated hemoglobin (HbA1c) in db/db mice; format: in vivo, male db/db mice; conditions: 0.5 mg/ml in drinking water
Description: The effect of compound administration on glycated hemoglobin levels was examined using a mouse model of diabetes as follows. Twenty male db/db mice (Harlan) received drinking water containing either vehicle (100 μM histidine) or compound A (0.5 mg/ml) for a period of 8 weeks. Prior to study initiation and at weeks 4 and 8 following treatment, blood samples were collected from the tail vein and HbA1c levels were measured using an HbA1cNOW kit (Metrika Inc., Sunnyvale Calif.).

[2] = Body weight gain, abdominal fat pad and organ weight in diet-induced obesity model; format: in vivo, male C57BL/6J mice; conditions: C57BL/6J mice, 75 mg/kg/day oral gavage, 28 days; for abdominal fat pad weight on high-fat diet: FIG. 9B; for organ weights of kidney, liver, and heart between experimental groups: FIG. 9C; for body weight gain on high-fat diet vs untreated high-fat diet: p<0.05, FIG. 9A
From the text: C57B1/6J mice fed a high-fat diet develop severe obesity, hyperglycemia, and hyperinsulinemia, and are a model of diet-induced obesity, Type 2 diabetes, and impaired glucose tolerance. Forty male C57BL/6J mice obtained from The Jackson Laboratory (Bar Harbor Me.) were divided into the following experimental groups: Group 1: vehicle control animals fed standard mouse chow (n=10); Group 2: vehicle control animals fed high-fat mouse chow (45% fat from Research Diets) (n=10); Group 3: animals fed high-fat mouse chow and administered 75 mg/kg/day compound E by oral gavage (n=10); Group 4: animals fed high-fat mouse chow and administered 75 mg/kg/day compound A by oral gavage (n=10). The feeding regimen was continued for 28 days with weekly measurement of body weight. Animals were then sacrificed and their organs and fat pads were harvested and weighed.

[3] = Serum triglyceride levels in db/db mice; format: in vivo, male db/db mice; conditions: 0.5 mg/ml in drinking water, 8 weeks
From the text: The effect of compound administration on triglyceride levels was examined using a mouse model of diabetes as follows: Twenty male db/db mice (Harlan, Indianapolis, Ind.), which carry a homozygous loss-of-function mutation in the leptin receptor, were used for this study. Triglycerdide levels are typically elevated 1.5-2 times in db/db mice compared to that in normal mice. (Nishina et al (1994) Metabolism 43:549-553.) Triglyceride levels in db/db mice progressively increase with age. (Tuman and Doisy (1977) Diabetologia 13:7-11.) Mice received drinking water containing either vehicle (100 μM histidine) or compound A (0.5 mg/ml in 100 μM histidine) for a period of 8 weeks. At the termination of the study, animals were fasted overnight and blood samples were taken from the caudal vena cava under general anesthesia and placed in serum separator tubes. Blood samples were sent to Quality Clinical Labs (Mountain View, Calif.) for analysis.

GluT-1 = GluT-1 protein levels in H9c2 cells (Western blot); format: cell-based, rat; conditions: H9c2 cells, 5, 10, and 20 μM, 16 hours; FIG. 1B
Description: Human SSC-25 (squamous cell carcinoma) or rat H9c2 (ventricular cardiomyocyte) cells were grown to confluence in 100 mm culture dishes at 37° C., 10% CO2 in DMEM with 10% fetal calf serum. Cells were then washed twice with PBS and incubated with vehicle control, compound D (10 and 25 μM), or compound C (5, 10, and 20 μM) for 16 hours. Plates were placed on ice, culture supernatant was removed, and lysis buffer-1 (LB-1: 10 mM Tris pH 7.4, 1 mM EDTA, 150 mM sodium chloride, 0.5% IGEPAL) was added. Cell lysates were harvested by scraping, incubated for 15 minutes on ice, and then centrifuged at 3000×g for 5 minutes at 4° C. The supernatant, which represents the cytosolic fraction, was collected and cytosolic proteins were separated under reducing conditions using SDS-polyacrylamide gel electrophoresis (SDS-PAGE) with equal amounts of protein loaded per lane.
SDS-PAGE was conducted at 150 V for 2 hours, after which the proteins were transferred to a PVDF membrane at 400 mA for 1.5 hours at 4° C. The membrane was incubated in blocking buffer for 2 hours or overnight and washed once with T-TBS prior to addition of anti-GluT-1 antibody (Alpha Diagnostics) diluted to working concentration in blocking buffer. […]

[4] = Intra-Peritoneal Glucose Tolerance Test in diet-induced Type 2 diabetes model; format: in vivo, male C57BL/6J mice; conditions: 75 mg/kg/day oral gavage, 14 days
Description: C57B1/6J mice fed a high-fat diet develop severe obesity, hyperglycemia, and hyperinsulinemia, and are a model of diet-induced obesity, Type 2 diabetes, and impaired glucose tolerance. Forty male C57BL/6J mice obtained from The Jackson Laboratory (Bar Harbor Me.) were divided into the following experimental groups: Group 1: vehicle control animals fed standard mouse chow (n=10); Group 2: animals fed standard mouse chow and administered 75 mg/kg/day compound E by oral gavage (n=10); Group 3: vehicle control animals fed high-fat mouse chow (45% fat from Research Diets) (n=10); Group 4: animals fed high-fat mouse chow and administered 75 mg/kg/day compound E by oral gavage (n=10). The feeding regimen was continued for 14 days with daily measurement of body weight and food consumption. Animals were then fasted for 4 hours prior to an Intra-Peritoneal Glucose Tolerance Test (IPGTT) using a glucose load of 2 g glucose/kg body weight. Blood samples were taken for determination of blood glucose levels at 0, 15, 30, 60, and 90 minutes following glucose administration.

HIF-1α = HIF-1α stabilization in cells, TRANSAM HIF-1 ELISA of nuclear fractions; format: cell-based, Human; conditions: epithelial cells (293A) and hepatocellular carcinoma (Hep3B); FIG. 12B
Description: Stabilization of HIFα using compounds and methods of the present invention was examined as follows. Human cells derived from adenovirus-transformed fetal kidney epithelium (293A), cervical epithelial adenocarcinoma (HeLa), hepatocellular carcinoma (Hep3B), squamous carcinoma (SSC-25), and lung fibroblast (HLF) (see, e.g., American Type Culture Collection, Manassas Va.; and Qbiogene, Carlsbad Calif.) were separately seeded into 100 mm culture dishes and grown at 37° C., 20% O2, 10% CO2 in media as follows: HeLa cells in Dulbecco's Modification of Eagle's Medium (DMEM), 2% fetal bovine serum (FBS); HLF cells in DMEM, 10%FBS; 293A cells in DMEM, 5%FBS; and Hep3B cells in Minimal Essential Medium (MEM), Earle's BSS (Mediatech Inc., Herndon Va.), 2 mM L-glutamine, 0.1 mM non-essential amino acids, 1 mM sodium pyruvate, 10% FBS. When cell layers reached confluence, the media was replaced with OPTI-MEM media (Invitrogen Life Technologies, Carlsbad Calif.) and cell layers were incubated for approximately 24 hours in 20% O2, 10% CO2 at 37° C. Compound of the invention (one of compounds B, F, G, and H) or DMSO (0.5 to 1%) was then added to existing medium, and incubation was continued overnight.
Alternatively, nuclear fractions were prepared using a Nuclear Extract kit (Active Motif, Carlsbad Calif.) and were analyzed for HIF-1α using a TRANSAM HIF-1 ELISA kit (Active Motif) according to the manufacturer's instructions.

SMILES | abdominal fat pad weight on high-fat diet [2] | organ weights of kidney, liver, and heart between experimental groups [2] | body weight gain on high-fat diet vs untreated high-fat diet [2] | HIFα stabilization and accumulation (ELISA) compared to vehicle-treated control cells (HIF-1α) | other results
O=C(O)CNC(=O)c1nc2cc(Cl)ccc2cc1O [compound A, [(7-Chloro-3-hydroxy-quinoline-2-carbonyl)-amino]-acetic acid] | essentially the same fat pad weight as animals fed a normal diet | not different | significantly less weight gain | – | HbA1c levels at week 8 vs non-treated [1]: significantly lower; HbA1c levels at week 8 ([1]; 8 weeks, control rose from about 7.5% to about 10%, FIG. 6): about 7.5%; HbA1c levels over time ([1]; weeks 0 to 8): did not increase over time; triglyceride level vs controls [3]: significantly lower than controls; triglyceride level ([3]; fasted overnight, control approximately 120 mg/dL, FIG. 11): approximately 85 mg/dL
O=C(O)CNC(=O)c1ncc2cc(Oc3ccccc3)ccc2c1O [compound C, [(4-Hydroxy-7-phenoxy-isoquinoline-3-carbonyl)-amino]-acetic acid] | – | – | – | – | protein levels of GluT-1 (GluT-1): increased
COc1ccc2c(O)c(C(=O)NCC(=O)O)nc(Cl)c2c1 [compound E, [(1-Chloro-4-hydroxy-7-methoxy-isoquinoline-3-carbonyl)-amino]-acetic acid] | essentially the same fat pad weight as animals fed a normal diet | not different | significantly less weight gain | – | glucose clearance rate in IPGTT, treated high-fat diet mice (RxHF) vs mice on standard chow ([4]; 2 g glucose/kg, FIG. 5A): substantially the same; glucose AUC in IPGTT, treated mice (RxChow, RxHF) vs standard chow without compound (VeChow) ([4]; FIG. 5B): no statistical difference; glucose AUC in IPGTT, high-fat chow without compound (VeHF) vs high-fat chow treated (RxHF) ([4]; t-test, p<0.05, FIG. 5B): statistically significant difference
CC(C)Oc1ccc2nc(C(=O)NCC(=O)O)c(O)cc2c1 [compound F, [(3-Hydroxy-6-isopropoxy-quinoline-2-carbonyl)-amino]-acetic acid] | – | – | – | stabilization and accumulation of HIFα | –
O=C(O)CNC(=O)c1ncccc1O [compound G, [(3-Hydroxy-pyridine-2-carbonyl)-amino]-acetic acid] | – | – | – | stabilization and accumulation of HIFα | –
COC(=O)CNC(=O)c1nc(Cl)c2cc(OCc3ccccc3)ccc2c1O [compound H, [(7-Benzyloxy-1-chloro-4-hydroxy-isoquinoline-3-carbonyl)-amino]-acetic acid methyl ester] | – | – | – | stabilization and accumulation of HIFα | –

Reference: patent publication US8124582B2, “Treatment of diabetes” (FibroGen, Inc., priority 2002, dated 2012)
